In the NIST ThermoML archive (doi:10.1016/j.jct.2016.12.032):

Assay: xn = mol fraction of the nth substance listed
Details: 100 kPa, Liquid; for viscosity: Capillary tube (Ostwald / Ubbelohde) method; for mass density: Vibrating tube method

O=C1CCCCCO1 [6-hexanolactone] + CCCC[n+]1ccn(C)c1.O=S(=O)([N-]S(=O)(=O)C(F)(F)F)C(F)(F)F
Details	mass density [kg/m3]	viscosity [mPa·s]
293.15 K, x2 = 0	1075.92	6.63
293.15 K, x2 = 0.05	1122.04	7.97
293.15 K, x2 = 0.1002	1161.48	9.67
293.15 K, x2 = 0.1505	1195.51	11.48
293.15 K, x2 = 0.1985	1223.86	13.4
293.15 K, x2 = 0.3001	1273.58	18.05
293.15 K, x2 = 0.3987	1311.9	23.25
293.15 K, x2 = 0.4903	1341.13	28.59
293.15 K, x2 = 0.6309	1377.36	37.38
293.15 K, x2 = 0.6988	1391.97	41.8
293.15 K, x2 = 0.8042	1411.81	48.8
293.15 K, x2 = 0.883	1424.76	54.08
298.15 K, x2 = 0	1071.67	5.76
298.15 K, x2 = 0.05	1117.68	6.87
298.15 K, x2 = 0.1002	1157.04	8.29
298.15 K, x2 = 0.1505	1191	9.78
298.15 K, x2 = 0.1985	1219.3	11.34
298.15 K, x2 = 0.3001	1268.92	15.14
298.15 K, x2 = 0.3987	1307.17	19.36
298.15 K, x2 = 0.4903	1336.35	23.66
298.15 K, x2 = 0.6309	1372.52	30.61
298.15 K, x2 = 0.6988	1387.11	34.05
298.15 K, x2 = 0.8042	1406.92	39.48
298.15 K, x2 = 0.883	1419.85	43.58
303.15 K, x2 = 0	1067.41	5.04
303.15 K, x2 = 0.05	1113.3	5.97
303.15 K, x2 = 0.1002	1152.56	7.18
303.15 K, x2 = 0.1505	1186.44	8.42
303.15 K, x2 = 0.1985	1214.67	9.71
303.15 K, x2 = 0.3001	1264.18	12.78
303.15 K, x2 = 0.3987	1302.35	16.15
303.15 K, x2 = 0.4903	1331.47	19.54
303.15 K, x2 = 0.6309	1367.57	25.2
303.15 K, x2 = 0.6988	1382.12	28.07
303.15 K, x2 = 0.8042	1401.89	32.58
303.15 K, x2 = 0.883	1414.8	36.02
308.15 K, x2 = 0	1063.15	4.44
308.15 K, x2 = 0.05	1108.94	5.22
308.15 K, x2 = 0.1002	1148.11	6.25
308.15 K, x2 = 0.1505	1181.92	7.26
308.15 K, x2 = 0.1985	1210.09	8.36
308.15 K, x2 = 0.3001	1259.51	10.91
308.15 K, x2 = 0.3987	1297.6	13.67
308.15 K, x2 = 0.4903	1326.67	16.42
308.15 K, x2 = 0.6309	1362.7	20.93
308.15 K, x2 = 0.6988	1377.23	23.21
308.15 K, x2 = 0.8042	1396.97	26.77
308.15 K, x2 = 0.883	1409.86	29.49
313.15 K, x2 = 0	1058.9	3.95
313.15 K, x2 = 0.05	1104.57	4.61
313.15 K, x2 = 0.1002	1143.65	5.5
313.15 K, x2 = 0.1505	1177.38	6.41
313.15 K, x2 = 0.1985	1205.49	7.35
313.15 K, x2 = 0.3001	1254.8	9.43
313.15 K, x2 = 0.3987	1292.82	11.71
313.15 K, x2 = 0.4903	1321.83	14.07
313.15 K, x2 = 0.6309	1357.8	17.79
313.15 K, x2 = 0.6988	1372.3	19.67
313.15 K, x2 = 0.8042	1392.01	22.59
313.15 K, x2 = 0.883	1404.86	24.85
318.15 K, x2 = 0	1054.65	3.53
318.15 K, x2 = 0.05	1100.22	4.07
318.15 K, x2 = 0.1002	1139.2	4.87
318.15 K, x2 = 0.1505	1172.86	5.67
318.15 K, x2 = 0.1985	1200.91	6.5
318.15 K, x2 = 0.3001	1250.12	8.31
318.15 K, x2 = 0.3987	1288.06	10.27
318.15 K, x2 = 0.4903	1317.02	12.18
318.15 K, x2 = 0.6309	1352.92	15.24
318.15 K, x2 = 0.6988	1367.39	16.82
318.15 K, x2 = 0.8042	1387.06	19.24
318.15 K, x2 = 0.883	1399.89	21.07
323.15 K, x2 = 0	1050.4	3.17
323.15 K, x2 = 0.05	1095.86	3.69
323.15 K, x2 = 0.1002	1134.75	4.36
323.15 K, x2 = 0.1505	1168.33	5.03
323.15 K, x2 = 0.1985	1196.32	5.73
323.15 K, x2 = 0.3001	1245.42	7.26
323.15 K, x2 = 0.3987	1283.28	8.9
323.15 K, x2 = 0.4903	1312.18	10.53
323.15 K, x2 = 0.6309	1348.01	13.14
323.15 K, x2 = 0.6988	1362.45	14.49
323.15 K, x2 = 0.8042	1382.08	16.64
323.15 K, x2 = 0.883	1394.89	18.26
